pIC50: −log10 of the molar value.
Assays:
MDA-MB-231 cells = experiment: MDA-MB-231 cell viability (CellTiter-Glo); type: cell-based; conditions: Homo sapiens, 72 h, 3 days, DMSO = 100.00; for viability at 1 µM: 1 μM compound concentration; for viability at 10 µM: 10 μM compound concentration
Protocol: (§1) Molm-13 cells were cultivated in RPMI-1640 (10% FBS/1% pen-strep) and were plated in white walled 96-well plates at 20,000 cells/well. H1048 cells were cultured in DMEM:F12 media supplemented with 5% fetal bovine serum, insulin, transferrin, sodium selenite, hydrocortisone, β-estradiol, penicillin and streptomycin, and were plated in white walled 96-well plates at 20,000 cells/well. MDA-MB-231 cells were cultured in DMEM media supplemented with 10% fetal bovine serum, penicillin and streptomycin, and were plated in white walled 96-well plates at 10,000 cells/well. Cells were treated with compound or DMSO (0.1%, control) and the cultures were incubated for 3 days at 37° C. and 5% CO2. Following the incubation period, 100 μL of CellTiterGlow (CTG) reagent (CellTiter-Glo® Luminescent Cell Viability Assay, Promega (Madison, Wis.)) was added to each well. Following a 10 min incubation with shaking, luminescence was measured using a Victor Wallac Luminometer.

IL-6 = IL-6 expression in LPS stimulated PBMCs (Meso Scale); type: cell-based, human; conditions: for inhibition at 0.1 µM / inhibition at 10 µM / inhibition at 1 µM: Homo sapiens, PBMC, LPS-stimulated PBMCs; for inhibition at 0.1 µM: compound concentration 0.1 μM; for inhibition at 10 µM: compound concentration 10 μM; for inhibition at 1 µM: compound concentration 1 μM
Protocol: FIGS. 6 and 9B are graphs showing IL-6 expression in LPS stimulated peripheral blood mononuclear cells (PBMCs). PBMCs were plated in 96-well plates and pretreated with compound (Compound 1-9 individually) for 1 h, and then induced with 100 ng/mL LPS for 18-24 h. Cytokines were measured according to MesoScale protocol. Negative control wells were treated with DMSO. Compound activity was measured as a percentage of LPS-induced activity. “Rev” is lenalidomide.
(§2) Frozen primary blood mononuclear cells (PBMCs) and frozen CD14+ mobilized peripheral blood monocytes were purchased from AllCells. Cells were quick thawed, and washed 1-time with RPMI-1640/10% FBS/1% Penicillin/1% Streptomycin and plated in 96-well plates at 200,000 cells per well. Cells were pretreated with DMSO only, Compound 5013 (lenolidamide) or the indicated compound for 1 h and then induced with 100 ng/mL lipopolysaccharide (LPS) for 18-24 h. The supernatant was analyzed for IL-1 beta, IL-6, and TNF-α using Meso Scale assay according to manufacturer's protocol. The negative control wells were treated with DMSO.
(§3) PBMCs: AllCells PB003F, Normal Peripheral Blood MNC.
(§4) Media: RPMI 1640/10% FBS/1% Pen-Strep.

IL-1β = IL-1β expression in LPS stimulated PBMCs (Meso Scale); type: cell-based, human; conditions: for inhibition at 0.1 µM / inhibition at 10 µM / inhibition at 1 µM: Homo sapiens, PBMC; for inhibition at 0.1 µM: compound concentration 0.1 μM; for inhibition at 10 µM: compound concentration 10 μM; for inhibition at 1 µM: compound concentration 1 μM
Protocol: FIGS. 5 and 9A are graphs showing IL-1-beta expression in LPS stimulated peripheral blood mononuclear cells (PBMCs), PBMCs were plated in 96-well plates and pretreated with compound (Compound 1-9 individually) for 1 h, and then induced with 100 ng/mL LPS for 18-24 h. Cytokines in the media were measured according to MesoScale protocol. Negative control wells were treated with DMSO. Compound activity is measured as a percentage of LPS-induced activity. “Rev” is lenalidomide.
as §2, §3, §4

GSPT1 = target: T1, GSPT1 (Homo sapiens, UniProt P15170); experiment: GSPT1 protein levels by Western Blot analysis; type: cell-based; conditions: DMSO = 100.00; for remaining activity at 0.1 µM: 100 nM compound concentration; for remaining activity at 1 µM: 1 μM compound concentration
T1 construct: Whole cell extracts were prepared using RIPA buffer according to manufacturer's protocol (Pierce); endogenous in cells
Protocol: Cells were lysed using RIPA Buffer (Pierce) and a Western Blot analysis was performed using anti-GSPT1 and anti-β-actin antibodies. FIG. 11B is a graph showing the expression levels of GSPT1 protein in Molm-13 (AML) cells. Protein expression levels were measured using the LiCor Odyssey instrumentation and methods.
Western Blot Protocol: Cell lines were grown in RPMI 1640 supplemented with streptomycin, penicillin and 10% fetal bovine serum.
Cells were cultured at approximately 10^6 cells per mL and incubated in DMSO or each of the indicated compounds for 6-8 h. Whole cell extracts were prepared using RIPA buffer according to manufacturer's protocol (Pierce). Briefly, 2×10^6 cells were washed once in PBS, the cell pellets were resuspended in RIPA buffer and allowed to incubate for 15 minutes on ice. Cells debris was removed by centrifugation and the cleared whole cell lysates were transferred to new tubes for further analysis.
For Western blot analysis, whole cell protein extracts were separated on 4-12% SDS-polyacrylamide gels, transferred to nitrocellulose, and probed with the indicated primary antibodies. Membranes were subsequently washed and probed with the appropriate IRDye secondary antibodies (LI-COR). The signal was detected using the Odyssey Imaging System (LI-COR).
GSPT1: Rabbit anti-GSPT1 was obtained from Abcam, ab126090 (Cambridge, Eng.)

Molm-13 cells = experiment: Molm-13 cell viability (CellTiter-Glo); type: cell-based; conditions: Homo sapiens; for cytotoxicity at 10 µM: compound concentration 10 μM; for cytotoxicity at 1 µM: compound concentration 1 μM; for cytotoxicity at 0.1 µM: compound concentration 0.1 μM
Protocol: (§5) FIG. 10A is a graph showing antiproliferative activity in H1048 (SCLC) cells. FIG. 10B is a graph showing antiproliferative activity in Molm-13 (AML) cells. In FIGS. 10A and 10B, the cells were incubated for 72 hrs with Compound 9 at the indicated concentrations or DMSO. Compound activity was measured based on the signal from remaining viable cells.
as §1

TNF-α = TNF-α expression in LPS stimulated PBMCs (Meso Scale); type: cell-based, human; conditions: for inhibition at 0.1 µM / inhibition at 10 µM / inhibition at 1 µM: Homo sapiens, PBMC; for inhibition at 0.1 µM: compound concentration 0.1 μM; for inhibition at 10 µM: compound concentration 10 μM; for inhibition at 1 µM: compound concentration 1 μM
Protocol: FIGS. 7 and 9C are graphs showing TNF-a expression in LPS stimulated peripheral blood mononuclear cells (PBMCs). PBMCs were plated in 96-well plates and pretreated with compound (Compound 1-9 individually) for 1 h, and then induced with 100 ng/mL LPS for 18-24 h. Cytokines in the media were measured according to MesoScale protocol. The negative control wells were treated with DMSO. Compound activity is measured as a percentage of LPS-induced activity. “Rev” is lenalidomide.
as §2, §3, §4

H1048 cells = experiment: H1048 cell viability (CellTiter-Glo); type: cell-based; conditions: Homo sapiens; for viability at 1 µM / viability at 10 µM: NCI-H1048, 72 h, H1048, 3 days, DMSO = 100.00; for viability at 1 µM: 1 μM compound concentration; for viability at 10 µM: 10 μM compound concentration
Protocol: as §5, §1

[1] = MOLM-13, read-out: % Inhibition (MOLM-13 Cell Viability)

T1 sequence (P15170 whole entry): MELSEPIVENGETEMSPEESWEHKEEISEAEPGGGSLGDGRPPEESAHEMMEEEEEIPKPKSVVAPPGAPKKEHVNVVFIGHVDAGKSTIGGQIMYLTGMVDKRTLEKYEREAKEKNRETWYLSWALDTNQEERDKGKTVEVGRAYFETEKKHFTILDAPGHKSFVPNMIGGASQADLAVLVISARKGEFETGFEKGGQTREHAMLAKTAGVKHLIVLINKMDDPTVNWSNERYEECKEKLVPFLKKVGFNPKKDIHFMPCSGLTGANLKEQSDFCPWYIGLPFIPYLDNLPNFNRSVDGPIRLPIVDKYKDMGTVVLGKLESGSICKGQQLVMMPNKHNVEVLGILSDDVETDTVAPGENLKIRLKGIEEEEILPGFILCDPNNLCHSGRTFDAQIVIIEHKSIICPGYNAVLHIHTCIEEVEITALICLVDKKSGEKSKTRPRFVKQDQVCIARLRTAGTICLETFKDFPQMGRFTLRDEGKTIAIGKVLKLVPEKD
T1 sequence (Q96SW2 whole entry, further chain): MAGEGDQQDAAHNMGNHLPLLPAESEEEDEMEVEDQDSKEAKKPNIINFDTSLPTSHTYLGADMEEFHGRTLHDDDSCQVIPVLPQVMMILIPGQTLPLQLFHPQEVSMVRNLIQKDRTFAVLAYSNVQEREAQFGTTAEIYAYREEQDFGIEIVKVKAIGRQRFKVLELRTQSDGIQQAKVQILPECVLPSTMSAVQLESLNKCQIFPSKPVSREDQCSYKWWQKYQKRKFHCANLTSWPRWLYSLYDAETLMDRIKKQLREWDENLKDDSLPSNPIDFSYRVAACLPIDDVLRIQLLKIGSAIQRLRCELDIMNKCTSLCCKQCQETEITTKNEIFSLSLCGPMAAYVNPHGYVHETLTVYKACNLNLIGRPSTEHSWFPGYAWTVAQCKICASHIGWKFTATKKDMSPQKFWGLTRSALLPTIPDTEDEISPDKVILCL
T1 sequence (Q16531 whole entry partner): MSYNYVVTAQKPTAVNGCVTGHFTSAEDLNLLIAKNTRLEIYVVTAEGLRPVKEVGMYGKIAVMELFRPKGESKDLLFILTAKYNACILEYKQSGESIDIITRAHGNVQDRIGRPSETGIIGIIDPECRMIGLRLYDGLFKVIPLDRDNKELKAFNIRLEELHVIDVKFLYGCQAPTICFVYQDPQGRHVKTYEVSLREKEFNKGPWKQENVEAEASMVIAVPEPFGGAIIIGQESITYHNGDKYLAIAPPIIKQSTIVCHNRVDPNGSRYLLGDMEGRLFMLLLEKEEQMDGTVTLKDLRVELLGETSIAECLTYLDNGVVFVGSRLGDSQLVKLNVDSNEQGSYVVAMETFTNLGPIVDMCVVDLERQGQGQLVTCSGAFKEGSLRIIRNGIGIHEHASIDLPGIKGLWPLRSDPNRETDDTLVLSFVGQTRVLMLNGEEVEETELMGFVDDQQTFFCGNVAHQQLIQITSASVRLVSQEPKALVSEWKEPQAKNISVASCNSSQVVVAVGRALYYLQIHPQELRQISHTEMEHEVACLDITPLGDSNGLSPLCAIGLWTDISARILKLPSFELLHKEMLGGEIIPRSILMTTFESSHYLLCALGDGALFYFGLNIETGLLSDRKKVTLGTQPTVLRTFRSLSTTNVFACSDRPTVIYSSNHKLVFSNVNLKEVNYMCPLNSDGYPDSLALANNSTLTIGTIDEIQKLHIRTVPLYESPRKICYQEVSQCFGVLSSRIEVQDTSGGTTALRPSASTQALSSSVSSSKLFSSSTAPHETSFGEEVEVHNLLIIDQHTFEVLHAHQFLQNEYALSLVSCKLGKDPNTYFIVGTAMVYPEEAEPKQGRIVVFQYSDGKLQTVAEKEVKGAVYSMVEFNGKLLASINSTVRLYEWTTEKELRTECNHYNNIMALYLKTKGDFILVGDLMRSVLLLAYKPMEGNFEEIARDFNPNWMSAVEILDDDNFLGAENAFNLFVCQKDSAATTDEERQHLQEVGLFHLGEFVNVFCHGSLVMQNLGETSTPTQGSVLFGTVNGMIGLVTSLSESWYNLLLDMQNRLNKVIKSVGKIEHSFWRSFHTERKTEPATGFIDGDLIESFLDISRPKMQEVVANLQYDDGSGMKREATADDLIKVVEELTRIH

Structure (SMILES) | viability at 1 µM (MDA-MB-231 cells) | viability at 10 µM (MDA-MB-231 cells) | viability at 1 µM (H1048 cells) | viability at 10 µM (H1048 cells) | inhibition at 10 µM (IL-6) | inhibition at 10 µM (IL-1β) | inhibition at 10 µM (TNF-α) | inhibition at 1 µM (IL-6) | inhibition at 1 µM (IL-1β) | cytotoxicity at 1 µM (Molm-13 cells; [1]) | inhibition at 1 µM (TNF-α) | also measured
Cc1ccc(NC(=O)NCc2scc3c2CN(C2CCC(=O)NC2=O)C3=O)cc1Cl (centres unmarked) [Compound 9, 1-(3-chloro-4-methylphenyl)-3-((5-(2,6-dioxopiperidin-3-yl)-4-oxo-5,6-dihydro-4H-thieno[3,4-c]pyrrol-1-yl)methyl)urea] | 19.6% | 19.1% | 7.5% | 7.93% | – | – | – | – | – | – | – | inhibition at 0.1 µM (IL-6): 100%; inhibition at 0.1 µM (IL-1β): 98%; remaining activity at 0.1 µM (GSPT1): 6.77%; remaining activity at 1 µM (GSPT1): 5.31%; cytotoxicity at 0.003 µM (Molm-13 cells; MOLM-13, compound concentration 0.003 μM, read-out: % Inhibition (MOLM-13 Cell Viability)): 50%; pIC50 (Molm-13 cells; Molm-13 cells, 72 hrs (FIG. 10B), read-out: approximate IC50 cell viability): ~8.52; inhibition at 0.1 µM (TNF-α): 98%; pIC50 (H1048 cells; NCI-H1048, H1048 cells, 72 hrs (FIG. 10A)): 9.30
O=C1CCC(N2Cc3c(csc3C(F)(F)F)C2=O)C(=O)N1 (centres unmarked) [Compound 29, 3-(4-Oxo-1-(trifluoromethyl)-4H-thieno[3,4-c]pyrrol-5(6H)-yl)piperidine-2,6-dione] | – | – | – | – | 19% | 57% | 60% | – | – | – | – | cytotoxicity at 10 µM (Molm-13 cells; [1]): 10%
Cc1ccc(NC(=O)NCc2csc3c2CN([C@H]2CCCC(=O)NC2=O)C3=O)cc1Cl [Compound 45, (S)-1-(3-Chloro-4-methylphenyl)-3-((5-(2,7-dioxoazepan-3-yl)-6-oxo-5,6-dihydro-4H-thieno[2,3-c]pyrrol-3-yl)methyl)urea] | 101% | 46.7% | 12.7% | 9.89% | – | – | – | 18% | 19% | 59% | 22% | remaining activity at 0.1 µM (GSPT1): 90.3%; remaining activity at 1 µM (GSPT1): 22.3%
Cc1ccc(NC(=O)NCc2scc3c2CN(C2CCC(=O)NC2=O)C3=O)nc1Cl (centres unmarked) [Compound 46, 1-(6-Chloro-5-methylpyridin-2-yl)-3-((5-(2,6-dioxopiperidin-3-yl)-4-oxo-5,6-dihydro-4H-thieno[3,4-c]pyrrol-1-yl)methyl)urea] | 29% | 24.1% | 9.35% | 11.5% | – | – | – | – | – | – | – | inhibition at 0.1 µM (IL-6): 85%; inhibition at 0.1 µM (IL-1β): 54%; remaining activity at 0.1 µM (GSPT1): 65.2%; remaining activity at 1 µM (GSPT1): 4.73%; cytotoxicity at 0.1 µM (Molm-13 cells; [1]): 100%; inhibition at 0.1 µM (TNF-α): 58%
Cc1ccc(NC(=O)Nc2scc3c2CN(C2CCC(=O)NC2=O)C3=O)cc1Cl (centres unmarked) [Compound 50, 1-(3-Chloro-4-methylphenyl)-3-(5-(2,6-dioxopiperidin-3-yl)-4-oxo-5,6-dihydro-4H-thieno[3,4-c]pyrrol-1-yl)urea] | 108% | 95.7% | 15.8% | 13.4% | – | – | – | 0% | 14% | 41% | 1% | –
Cc1ccc(CNC(=O)NCc2csc3c2CN([C@H]2CCCC(=O)NC2=O)C3=O)cc1Cl [Compound 51, (S)-1-(3-Chloro-4-methylbenzyl)-3-((5-(2,7-dioxoazepan-3-yl)-6-oxo-5,6-dihydro-4H-thieno[2,3-c]pyrrol-3-yl)methyl)urea] | 108% | 103% | 94.9% | 24.1% | – | – | – | 5% | 38% | 0% | 49% | –
Cc1ccc(CC(=O)Nc2scc3c2CN(C2CCC(=O)NC2=O)C3=O)cc1Cl (centres unmarked) [Compound 56, 2-(3-Chloro-4-methylphenyl)-N-(5-(2,6-dioxopiperidin-3-yl)-4-oxo-5,6-dihydro-4H-thieno[3,4-c]pyrrol-1-yl)acetamide] | 108% | 101% | 29.1% | 26.3% | – | – | – | 12% | 55% | – | 59% | cytotoxicity at 0.1 µM (Molm-13 cells; [1]): 10%
Cc1cnc(Nc2ccc(OCCCNC(=O)NCc3scc4c3CN(C3CCC(=O)NC3=O)C4=O)cc2)nc1Nc1cccc(S(=O)(=O)NC(C)(C)C)c1 (centres unmarked) [Compound 62, N-(tert-Butyl)-3-((2-((4-(3-(3-((5-(2,6-dioxopiperidin-3-yl)-4-oxo-5,6-dihydro-4H-thieno[3,4-c]pyrrol-1-yl)methyl)ureido)propoxy)phenyl)amino)-5-methylpyrimidin-4-yl)amino)benzenesulfonamide] | – | – | – | – | 15% | 51% | 63% | – | – | 71% | – | –
Cc1sc2c(c1C)C(c1ccc(Cl)cc1)=N[C@@H](CC(=O)NCCCCNCC(=O)NCc1scc3c1CN([C@H]1CCCC(=O)NC1=O)C3=O)c1nnc(C)n1-2 [Compound 63, 2-((S)-4-(4-Chlorophenyl)-2,3,9-trimethyl-6H-thieno[3,2-f][1,2,4]triazolo[4,3-a][1,4]diazepin-6-yl)-N-(4-((2-(((5-((S)-2,7-dioxoazepan-3-yl)-4-oxo-5,6-dihydro-4H-thieno[3,4-c]pyrrol-1-yl)methyl)amino)-2-oxoethyl)amino)butyl)acetamide] | – | – | – | – | 1% | 27% | 34% | – | – | – | – | –
O=C1CCC(N2Cc3c(C4CCCC4)csc3C2=O)C(=O)N1 (centres unmarked) [Compound 64, 3-(3-Cyclopentyl-6-oxo-4H-thieno[2,3-c]pyrrol-5(6H)-yl)piperidine-2,6-dione] | – | – | – | – | 8% | 22% | 45% | – | – | – | – | cytotoxicity at 10 µM (Molm-13 cells; [1]): 13%
Nc1cccc2c1CN(C1CCC(=O)NC1=O)C2=O (centres unmarked) [lenalidomide, reference compound] | – | – | – | – | – | – | – | – | – | – | – | reduction of IL-6 levels (IL-6; LPS-stimulated PBMCs (FIG. 6)): below 60%; reduction of expression of IL-1-b (IL-1β; equimolar concentration (FIG. 5)): over 60%; reduction of expression of TNF-α (TNF-α; equimolar concentration (FIG. 7)): below 60%
